Measurements from ChEMBL document CHEMBL3045430, “Natural products-based insecticidal agents 11. Synthesis and insecticidal activity of novel 4α-arylsulfonyloxybenzyloxy-2β-chloropodophyllotoxin derivatives against Mythimna separata Walker in vivo” (2011).
The source made the active and inactive calls. No cut-off for these calls is given here.

Legend:
Mythimna separata [1] = assay: In vivo insecticidal activity against pre-third-instar larval stage of Mythimna separata (Oriental armyworm) in corn leaves assessed as corrected mortality rate at 1 mg/ml treated for 3 secs before larval infestation on corn leaves measured after 10 days by leaf-dipping method; format: functional; settings: 240 h
Mythimna separata [2] = assay: In vivo insecticidal activity against pre-third-instar larval stage of Mythimna separata (Oriental armyworm) in corn leaves assessed as corrected mortality rate at 1 mg/ml treated for 3 secs before larval infestation on corn leaves measured after 35 days by leaf-dipping method; format: functional; settings: 840 h
Mythimna separata [3] = assay: In vivo insecticidal activity against pre-third-instar larval stage of Mythimna separata (Oriental armyworm) in corn leaves assessed as corrected mortality rate at 1 mg/ml treated for 3 secs before larval infestation on corn leaves measured after 20 days by leaf-dipping method; format: functional; settings: 480 h
Mythimna separata [4] = assay: In vivo insecticidal activity against pre-third-instar larval stage of Mythimna separata (Oriental armyworm) in corn leaves assessed as induction of malformed moth with imperfect wings at 1 mg/ml treated for 3 secs before larval infestation on corn leaves measured after […] by leaf-dipping method; format: functional, organism-based
Mythimna separata [5] = assay: In vivo insecticidal activity against pre-third-instar larval stage of Mythimna separata (Oriental armyworm) in corn leaves assessed as induction of malformed pupae at 1 mg/ml treated for 3 secs before larval infestation on corn leaves measured after […] by leaf-dipping method; format: functional, organism-based
Mythimna separata [6] = assay: In vivo insecticidal activity against pre-third-instar larval stage of Mythimna separata (Oriental armyworm) in corn leaves assessed as induction of slim and wrinkled larval bodies at 1 mg/ml treated for 3 secs before larval infestation on corn leaves measured after 48 hr by leaf-dipping method; format: functional, organism-based

Row | Compound | mortality at 1000 µg/mL (Mythimna separata [1]) | mortality at 1000 µg/mL (Mythimna separata [2]) | mortality at 1000 µg/mL (Mythimna separata [3]) | Activity (Mythimna separata [4]) | Activity (Mythimna separata [5]) | Activity (Mythimna separata [6])
1 | COc1cc([C@@H]2c3cc4c(cc3[C@H](OCc3ccccc3)[C@H]3COC(=O)[C@]23Cl)OCO4)cc(OC)c1OC [4ALPHA-BENZYLOXY-2-CHLOROPODOPHYLLOTOXIN] | 10.7% | 52% | 19.2% |  |  | 
2 | COc1cc([C@@H]2c3cc4c(cc3[C@H](OCc3ccccc3OS(=O)(=O)c3cccc([N+](=O)[O-])c3)[C@H]3COC(=O)[C@]23Cl)OCO4)cc(OC)c1OC | 10.7% | 36% | 34.6% | Active | Active | 
3 | COc1ccc(S(=O)(=O)Oc2ccc(CO[C@H]3c4cc5c(cc4[C@@H](c4cc(OC)c(OC)c(OC)c4)[C@@]4(Cl)C(=O)OC[C@H]34)OCO5)cc2)cc1 | 21.4% | 48% | 34.6% |  |  | 
4 | CCc1ccc(S(=O)(=O)Oc2ccccc2CO[C@H]2c3cc4c(cc3[C@@H](c3cc(OC)c(OC)c(OC)c3)[C@@]3(Cl)C(=O)OC[C@H]23)OCO4)cc1 | 35.7% | 68% | 57.7% |  |  | Active
5 | COc1cc([C@@H]2c3cc4c(cc3[C@H](OCc3ccccc3OS(=O)(=O)c3ccc(C)cc3)[C@H]3COC(=O)[C@]23Cl)OCO4)cc(OC)c1OC | 21.4% | 52% | 34.6% |  |  | 
6 | CC(=O)O[C@@H]1C[C@H](O)[C@@]23CO[C@@H](O)[C@]1(C)[C@@H]2C[C@@H](O)[C@]1(C)[C@@H]3C(=O)[C@H](OC(C)=O)[C@@]2(C)[C@H](c3ccoc3)C[C@H]3O[C@]321 [TOOSENDANIN] | 17.9% | 48% | 34.6% |  |  | 
7 | COc1ccc(S(=O)(=O)Oc2ccccc2CO[C@H]2c3cc4c(cc3[C@@H](c3cc(OC)c(OC)c(OC)c3)[C@@]3(Cl)C(=O)OC[C@H]23)OCO4)cc1 | 17.9% | 48% | 34.6% | Active |  | 
8 | COc1cc([C@@H]2c3cc4c(cc3[C@H](OCc3ccccc3OS(=O)(=O)c3ccc(Cl)cc3)[C@H]3COC(=O)[C@]23Cl)OCO4)cc(OC)c1OC | 7.1% | 48% | 34.6% | Active |  | 
9 | COc1cc([C@@H]2c3cc4c(cc3[C@H](OCc3ccc(OS(=O)(=O)c5ccccc5)cc3)[C@H]3COC(=O)[C@]23Cl)OCO4)cc(OC)c1OC | 14.3% | 36% | 30.8% |  | Active | 
10 | COc1cc([C@@H]2c3cc4c(cc3[C@H](OCc3ccc(OS(=O)(=O)c5ccc(C)cc5)cc3)[C@H]3COC(=O)[C@]23Cl)OCO4)cc(OC)c1OC | 17.9% | 40% | 38.5% |  | Active | 
11 | COc1cc([C@@H]2c3cc4c(cc3[C@H](O)[C@H]3COC(=O)[C@]23Cl)OCO4)cc(OC)c1OC [2BETA-CHLOROPODOPHYLLOTOXIN] | 14.3% | 36% | 15.4% |  |  | 
12 | COc1cc([C@@H]2c3cc4c(cc3[C@H](OCc3ccc(OS(=O)(=O)c5ccc(Cl)cc5)cc3)[C@H]3COC(=O)[C@]23Cl)OCO4)cc(OC)c1OC | 28.6% | 40% | 38.5% |  |  | 
13 | COc1cc([C@@H]2c3cc4c(cc3[C@H](OCc3ccccc3OS(=O)(=O)c3ccccc3)[C@H]3COC(=O)[C@]23Cl)OCO4)cc(OC)c1OC | 7.1% | 40% | 26.9% | Active | Active | 
14 | COc1cc([C@@H]2c3cc4c(cc3[C@H](OCc3ccc(OS(=O)(=O)c5cccc([N+](=O)[O-])c5)cc3)[C@H]3COC(=O)[C@]23Cl)OCO4)cc(OC)c1OC | 14.3% | 52% | 38.5% |  | Active | 
15 | COc1cc([C@@H]2c3cc4c(cc3[C@H](OCc3ccccc3OS(=O)(=O)c3ccc(Cl)c([N+](=O)[O-])c3)[C@H]3COC(=O)[C@]23Cl)OCO4)cc(OC)c1OC | 25% | 72% | 57.7% |  | Active | Active
16 | COc1cc([C@@H]2c3cc4c(cc3[C@H](OCc3ccc(OS(=O)(=O)c5ccc(Cl)c([N+](=O)[O-])c5)cc3)[C@H]3COC(=O)[C@]23Cl)OCO4)cc(OC)c1OC | 17.9% | 48% | 26.9% |  |  | 
17 | CCc1ccc(S(=O)(=O)Oc2ccc(CO[C@H]3c4cc5c(cc4[C@@H](c4cc(OC)c(OC)c(OC)c4)[C@@]4(Cl)C(=O)OC[C@H]34)OCO5)cc2)cc1 | 14.3% | 56% | 38.5% |  |  | Active
18 | COc1cc([C@@H]2c3cc4c(cc3[C@H](O)[C@H]3COC(=O)[C@H]23)OCO4)cc(OC)c1OC [PODOFILOX] | 17.9% | 40% | 23.1% |  |  | 
